Experimental data as given in patent US20230233545A1, “TREATMENT OF ATRIAL DYSFUNCTION” (MyoKardia, Inc., priority 2020, published 2023).

Assays:
[1] = target: left atrial (LA) myofibrils (Sus scrofa, UniProt K7GMH0); assay: Steady-state ATPase (ATP turnover rate), LA myofibrils; assay type: biochemical, Yucatan mini-pig
Experimental: The ability of Compound I to increase myocardial ATP turnover rates selectively was evaluated using both left atrial (LA) and left ventricular (LV) myofibrils prepared from Yucatan mini-pig hearts, as well as subfragment-1 (51) myosins from cardiac (recombinant human), skeletal (rabbit psoas) and smooth (chicken gizzard) muscles. Pig hearts were harvested, and the left atria/ventricles were freshly excised, dissected, frozen in liquid nitrogen and stored at −80° C. […] This enzyme system couples the formation of ADP to the oxidation of NADH leading to an absorbance change at 340 nm. […] All measurements were carried out at 25° C. using a plate reader (SpectraMax; Molecular Devices, LLC, CA, USA) to monitor the change in absorbance as a function of time; data were normalized to a per-second scale as described in Green et al., Science (2016) 351(6273):617-21. […]

[2] = Pharmacokinetics in patients with stable HFrEF; assay type: in vivo; details: human, oral
Experimental: In the single-ascending dose trial, single fasting doses of Compound I 175-550 mg or placebo were evaluated in a crossover manner in 12 patients over two sequential cohorts (1 and 2), with intervals between singles doses ranging from 3 days (subsequently amended to 5) to 14 days. In Cohort 1, eight patients were enrolled and all received placebo and Compound I 175 mg and 350 mg (in random sequence and in a blinded fashion) during three periods, A-C. Six patients elected to continue into a fourth optional open label period D. Compound I doses administered in the open-label period included: 350 mg (n=1); 450 mg (divided into two administrations; n=1); 525 mg (n=2); and 550 mg (divided into two administrations; n=2). In Cohort 2, four patients were enrolled, and all received placebo and Compound I 400 mg and 500 mg in random sequence (both active 400 mg and 500 mg doses were divided into two administrations).
For each treatment period, pre-dose assessments followed by administration of single dose were performed on Day 1 in the morning. The patient underwent serial pharmacokinetic (PK), pharmacodynamic (PD [trans-thoracic echocardiography or TTE]), ECG and safety laboratory assessments through Day 1 (until the evening) as well as on Day 2. Patients were discharged on Day 3 morning and returned to the clinic on Day 4 for a final PK assessment, and evaluation of adverse events (AEs). […]

[3] = target: T1, recombinant human cardiac S1 myosin (Homo sapiens, UniProt P12883); assay: Actin-activated ATPase, cardiac S1 myosin; assay type: biochemical; details: at 3 μM
T1 construct: subfragment-1 (51) myosins from cardiac (recombinant human), skeletal (rabbit psoas) and smooth (chicken gizzard) muscles; made in house
Experimental: The ability of Compound I to increase myocardial ATP turnover rates selectively was evaluated using both left atrial (LA) and left ventricular (LV) myofibrils prepared from Yucatan mini-pig hearts, as well as subfragment-1 (51) myosins from cardiac (recombinant human), skeletal (rabbit psoas) and smooth (chicken gizzard) muscles. Pig hearts were harvested, and the left atria/ventricles were freshly excised, dissected, frozen in liquid nitrogen and stored at −80° C. […]
Steady-state ATPase measurements at varying concentrations of Compound I (0-50 μM, in 2% DMSO) were conducted using a coupled enzyme system utilizing pyruvate kinase and lactate dehydrogenase. This enzyme system couples the formation of ADP to the oxidation of NADH leading to an absorbance change at 340 nm. […] All measurements were carried out at 25° C. using a plate reader (SpectraMax; Molecular Devices, LLC, CA, USA) to monitor the change in absorbance as a function of time; data were normalized to a per-second scale as described in Green et al., Science (2016) 351(6273):617-21. […]

[4] = target: T2, left ventricular (LV) myofibrils (Sus scrofa, UniProt P79293); assay: Steady-state ATPase (ATP turnover rate), LV myofibrils; assay type: biochemical, Yucatan mini-pig
T2 construct: from tissue; host or cells: left ventricle of Yucatan mini-pig heart
T2 sequence (P79293 whole entry): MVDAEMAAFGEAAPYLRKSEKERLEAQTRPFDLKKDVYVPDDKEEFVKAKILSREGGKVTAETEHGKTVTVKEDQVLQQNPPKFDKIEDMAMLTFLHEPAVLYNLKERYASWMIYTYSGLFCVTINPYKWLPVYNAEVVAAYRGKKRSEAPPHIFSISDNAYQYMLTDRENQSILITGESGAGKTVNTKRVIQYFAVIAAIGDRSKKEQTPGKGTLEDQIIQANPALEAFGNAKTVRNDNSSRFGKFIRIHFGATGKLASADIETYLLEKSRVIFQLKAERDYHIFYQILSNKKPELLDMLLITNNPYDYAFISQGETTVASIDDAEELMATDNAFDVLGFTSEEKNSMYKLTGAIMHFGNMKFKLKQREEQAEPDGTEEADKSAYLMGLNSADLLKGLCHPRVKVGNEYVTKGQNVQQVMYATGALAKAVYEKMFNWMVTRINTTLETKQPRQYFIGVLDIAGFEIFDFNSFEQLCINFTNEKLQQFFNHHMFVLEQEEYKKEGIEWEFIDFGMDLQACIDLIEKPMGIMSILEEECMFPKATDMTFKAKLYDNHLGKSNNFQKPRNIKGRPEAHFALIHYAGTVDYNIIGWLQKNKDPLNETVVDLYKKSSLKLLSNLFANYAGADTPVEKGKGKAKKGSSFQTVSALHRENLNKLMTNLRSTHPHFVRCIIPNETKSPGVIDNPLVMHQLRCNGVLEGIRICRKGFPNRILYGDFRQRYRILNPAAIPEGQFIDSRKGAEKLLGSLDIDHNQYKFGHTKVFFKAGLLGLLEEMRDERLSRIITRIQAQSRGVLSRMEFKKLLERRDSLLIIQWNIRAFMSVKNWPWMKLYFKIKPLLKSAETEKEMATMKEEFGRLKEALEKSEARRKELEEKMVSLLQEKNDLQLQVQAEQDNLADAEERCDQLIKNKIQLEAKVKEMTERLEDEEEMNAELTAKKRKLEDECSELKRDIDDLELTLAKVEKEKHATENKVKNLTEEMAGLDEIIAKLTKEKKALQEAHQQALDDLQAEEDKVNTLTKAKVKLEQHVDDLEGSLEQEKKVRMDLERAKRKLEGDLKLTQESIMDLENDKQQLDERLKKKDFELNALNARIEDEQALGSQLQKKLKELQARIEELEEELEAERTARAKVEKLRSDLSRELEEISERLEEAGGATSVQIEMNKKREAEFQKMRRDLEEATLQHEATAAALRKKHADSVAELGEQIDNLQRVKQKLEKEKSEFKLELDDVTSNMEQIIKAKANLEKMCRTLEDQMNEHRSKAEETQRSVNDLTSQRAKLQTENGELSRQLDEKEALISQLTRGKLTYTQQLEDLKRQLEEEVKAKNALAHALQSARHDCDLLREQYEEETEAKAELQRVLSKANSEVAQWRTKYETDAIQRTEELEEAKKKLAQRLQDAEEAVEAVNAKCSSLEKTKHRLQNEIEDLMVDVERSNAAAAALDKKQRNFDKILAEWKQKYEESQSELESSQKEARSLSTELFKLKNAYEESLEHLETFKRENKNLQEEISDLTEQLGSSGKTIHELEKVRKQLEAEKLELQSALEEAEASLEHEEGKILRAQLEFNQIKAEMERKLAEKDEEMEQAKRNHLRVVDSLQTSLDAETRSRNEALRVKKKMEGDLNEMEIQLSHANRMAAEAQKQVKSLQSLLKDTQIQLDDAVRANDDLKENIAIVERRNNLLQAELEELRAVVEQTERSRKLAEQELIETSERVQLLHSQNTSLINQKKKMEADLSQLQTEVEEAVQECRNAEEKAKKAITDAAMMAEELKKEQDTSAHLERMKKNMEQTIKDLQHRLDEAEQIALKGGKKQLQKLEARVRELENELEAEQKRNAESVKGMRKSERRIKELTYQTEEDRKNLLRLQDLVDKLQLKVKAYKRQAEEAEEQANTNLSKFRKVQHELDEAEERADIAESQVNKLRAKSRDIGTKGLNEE
Experimental: The ability of Compound I to increase myocardial ATP turnover rates selectively was evaluated using both left atrial (LA) and left ventricular (LV) myofibrils prepared from Yucatan mini-pig hearts, as well as subfragment-1 (51) myosins from cardiac (recombinant human), skeletal (rabbit psoas) and smooth (chicken gizzard) muscles. Pig hearts were harvested, and the left atria/ventricles were freshly excised, dissected, frozen in liquid nitrogen and stored at −80° C. Myofibrils and S1 myosins were prepared as described in Kawas et al., J Biol Chem. (2017) 292(40:16571-7. Both atrial (n=4 hearts, 2 replicates each) and ventricular (n=3 hearts, 2 replicates each) myofibrils were assayed at a constant concentration of 1.0 mg/mL (at Ca^2+ sensitivity [pCa] 6.0). Rabbit skeletal (0.2 μM, n=8), chicken gizzard (0.5 n=10) and recombinant human cardiac (0.5 n=10) S1 myosin were assayed with a constant concentration of actin (14 μM).
Steady-state ATPase measurements at varying concentrations of Compound I (0-50 μM, in 2% DMSO) were conducted using a coupled enzyme system utilizing pyruvate kinase and lactate dehydrogenase. This enzyme system couples the formation of ADP to the oxidation of NADH leading to an absorbance change at 340 nm. The buffering system used in all experiments was 12 mM PIPES, 2 mM MgCl2 and 1 mM dithiothreitol (DTT) at pH 6.8 (PM12 buffer). All measurements were carried out at 25° C. using a plate reader (SpectraMax; Molecular Devices, LLC, CA, USA) to monitor the change in absorbance as a function of time; data were normalized to a per-second scale as described in Green et al., Science (2016) 351(6273):617-21. Data are presented as means (standard deviation [SD]) in text or as mean±standard error of the mean (SEM) in figures; half maximal effective concentration (EC50) values (and 95% confidence intervals [CIs]) were calculated using a four-parameter-fit model (GraphPad Prism, GraphPad Software Inc., CA, USA).

left atrial (LA) myofibrils, sequence (F1SSF9 2-175): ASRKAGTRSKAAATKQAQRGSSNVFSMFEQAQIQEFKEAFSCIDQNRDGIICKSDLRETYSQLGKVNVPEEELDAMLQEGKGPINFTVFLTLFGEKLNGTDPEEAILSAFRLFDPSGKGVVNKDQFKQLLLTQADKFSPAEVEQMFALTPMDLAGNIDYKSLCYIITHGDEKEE
left atrial (LA) myofibrils, sequence (K7GMH0 entry or part of it): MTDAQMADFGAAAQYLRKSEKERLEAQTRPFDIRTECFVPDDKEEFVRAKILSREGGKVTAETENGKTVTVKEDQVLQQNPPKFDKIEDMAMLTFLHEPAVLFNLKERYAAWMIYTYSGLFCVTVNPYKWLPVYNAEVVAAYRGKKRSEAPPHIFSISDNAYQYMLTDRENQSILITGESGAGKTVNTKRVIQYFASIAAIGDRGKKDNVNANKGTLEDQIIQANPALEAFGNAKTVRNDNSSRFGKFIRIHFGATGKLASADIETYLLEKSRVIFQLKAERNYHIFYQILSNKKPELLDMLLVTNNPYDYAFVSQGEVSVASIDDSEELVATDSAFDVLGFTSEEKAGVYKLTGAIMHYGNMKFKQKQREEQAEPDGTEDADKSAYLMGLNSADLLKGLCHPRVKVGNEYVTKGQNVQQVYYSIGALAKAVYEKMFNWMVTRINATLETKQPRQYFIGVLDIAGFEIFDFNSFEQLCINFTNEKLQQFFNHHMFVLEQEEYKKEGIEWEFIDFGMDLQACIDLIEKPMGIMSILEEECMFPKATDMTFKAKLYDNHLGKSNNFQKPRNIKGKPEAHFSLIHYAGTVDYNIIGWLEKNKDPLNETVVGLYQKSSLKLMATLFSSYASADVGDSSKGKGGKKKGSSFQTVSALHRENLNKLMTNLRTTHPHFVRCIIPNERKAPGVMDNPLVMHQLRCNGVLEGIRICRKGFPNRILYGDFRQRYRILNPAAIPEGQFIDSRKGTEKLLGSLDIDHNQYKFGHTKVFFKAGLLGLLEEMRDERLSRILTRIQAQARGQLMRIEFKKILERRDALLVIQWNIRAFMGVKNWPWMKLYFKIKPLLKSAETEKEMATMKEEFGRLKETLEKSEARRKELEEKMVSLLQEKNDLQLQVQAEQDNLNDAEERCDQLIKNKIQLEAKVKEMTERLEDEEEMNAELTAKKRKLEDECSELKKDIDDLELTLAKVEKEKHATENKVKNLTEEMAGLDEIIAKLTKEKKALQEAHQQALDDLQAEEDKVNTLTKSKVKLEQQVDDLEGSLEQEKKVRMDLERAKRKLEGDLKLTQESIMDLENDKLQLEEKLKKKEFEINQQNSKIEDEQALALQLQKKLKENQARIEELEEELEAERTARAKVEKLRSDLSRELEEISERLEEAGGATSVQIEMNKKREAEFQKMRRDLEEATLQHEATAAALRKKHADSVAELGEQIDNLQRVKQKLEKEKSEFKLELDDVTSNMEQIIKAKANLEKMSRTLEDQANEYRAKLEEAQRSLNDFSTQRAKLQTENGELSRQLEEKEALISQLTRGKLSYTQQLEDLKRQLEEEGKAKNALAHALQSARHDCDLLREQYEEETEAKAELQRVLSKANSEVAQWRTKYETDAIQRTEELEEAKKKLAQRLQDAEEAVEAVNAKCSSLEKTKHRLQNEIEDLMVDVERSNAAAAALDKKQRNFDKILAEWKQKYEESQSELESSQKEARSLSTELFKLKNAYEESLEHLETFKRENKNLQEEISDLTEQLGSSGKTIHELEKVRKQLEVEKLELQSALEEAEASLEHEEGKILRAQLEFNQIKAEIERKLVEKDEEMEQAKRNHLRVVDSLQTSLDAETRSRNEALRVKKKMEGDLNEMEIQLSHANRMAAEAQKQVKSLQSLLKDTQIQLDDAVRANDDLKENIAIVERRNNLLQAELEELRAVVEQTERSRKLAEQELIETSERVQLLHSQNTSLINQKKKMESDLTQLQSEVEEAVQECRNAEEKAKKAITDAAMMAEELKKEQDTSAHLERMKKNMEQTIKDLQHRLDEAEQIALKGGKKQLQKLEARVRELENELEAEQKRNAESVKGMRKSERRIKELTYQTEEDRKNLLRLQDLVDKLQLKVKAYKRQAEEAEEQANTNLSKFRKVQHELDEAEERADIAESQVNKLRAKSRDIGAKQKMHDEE
left atrial (LA) myofibrils, sequence (F1RRT2 2-197, further chain): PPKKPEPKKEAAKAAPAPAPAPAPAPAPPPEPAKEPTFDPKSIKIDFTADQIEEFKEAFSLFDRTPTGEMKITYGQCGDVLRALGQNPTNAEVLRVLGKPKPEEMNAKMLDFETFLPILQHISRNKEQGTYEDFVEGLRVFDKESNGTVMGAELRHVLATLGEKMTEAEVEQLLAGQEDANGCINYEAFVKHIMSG

Q: Which activation at 3 µM ([1]; at 3 μM, read-out: increase in ATPase, LA porcine myofibrils) does the source give for `Cn1cc(S(=O)(=O)[C@@](C)(F)C2CCN(C(=O)Nc3ccon3)CC2)c(C(F)F)n1` [Compound I, (R)-4-(1-((3-(difluoromethyl)-1-methyl-1H-pyrazol-4-yl)sulfonyl)-1-fluoroethyl)-N-(isoxazol-3-yl)piperidine-1-carboxamide] here?
A: 56%

Q: What about the fold induction at 50 µM ([1]; at 50 μM, SD ±0.3, read-out: increase in ATPase turnover rate, atrial myofibrils) of the same compound?
A: 2.3

Q: And the half-life ([2]; in vivo, patients that received Compound I as part of Cohort 1 (single doses))?
A: 20 to 25 h

Q: What about the concentration at 7 days ([2]; plasma, 50 mg BID, with food, read-out: steady-state concentration) of the same compound?
A: 2000 to 3500 ng/mL

Q: And the “increase in ATPase rate, cardiac (human) S1 myosin” value [3]?
A: 1.4 fold

Q: And the “increase in ATPase, LV porcine myofibrils” value ([4]; at 3 μM)?
A: 85%

Q: What about the “increase in ATPase turnover rate, ventricular myofibrils” value ([4]; at 50 μM, SD ±0.3) of the same compound?
A: 3.0 fold

Q: What about the AC50 ([4]; pCa 6.0, 25° C., 95% CI 3.7-27.5, read-out: half maximal active concentration [AC50], ATPase turnover rate, ventricular myofibrils) of the same compound?
A: 6 µM
